{"source": "patent US8680134B2", "about": "“Triptans for the treatment of psoriasis” (priority 2009, dated 2014)", "key": {"[1]": {"system": "psoriasis lesions (scales) on elbow", "assay": "Example 1: topical sumatriptan cream on one elbow, then the other, in a subject with chronic psoriasis", "format": "in vivo, human", "settings": "cream 0.04% w/w sumatriptan", "experimental": "A subject with chronic psoriasis was administered a cream composed of 0.04% w/w sumatriptan, Dimethicon, Capric Caprylic triglyceride, Mineral oil, Cetyl alcohol & Glyceryl stearate & PEG-75 & Ceteth-20 & Steareth-20, Cetearyl alcohol, Shea butter, Glycerin, Triclosan, Propylene Glycol, Sodium Benzoate, Methylisothiazolinone in water. It was used for five days, once daily, on one elbow. […] No change was observed on psoriasis lesions on the untreated side. The subject was instructed to use the cream once daily on the complementary elbow."}, "[2]": {"system": "psoriasis scales on both elbows", "assay": "Example 2: sumatriptan cream on left elbow versus carrier cream on right elbow in the same subject", "format": "in vivo, human", "excerpt": "A subject with scales on both elbows was recruited. The subject used twice daily for 5 days two different creams: • a.\nThe abovementioned design eliminates the mild possible therapeutic effect of an emollient on scales and healing. The mode of treatment eliminates as well the possibility of self healing or placebo effect."}}, "note": "Entries after “also recorded” stand apart in the source; their conditions may differ.", "data": [{"smiles": "CNS(=O)(=O)Cc1ccc2[nH]cc(CCN(C)C)c2c1", "note": "[sumatriptan, 1-[3-(2-Dimethylaminoethyl)-1H-indol-5-yl]-N-methyl-methanesulfonamide]", "values": [{"measurement": "skin condition of the treated elbow", "setting": "[1]; once daily for five days, one elbow", "result": "Healthy skin with normalization was noted"}, {"measurement": "scales on the treated elbow", "setting": "[1]; once daily for five days, one elbow, person with chronic psoriasis", "result": "disappearance of scales was prominent on the treated side"}, {"measurement": "skin normalization on the complementary elbow", "setting": "[1]; once daily, after scale disappearance", "result": "skin turned into normal within the next week"}, {"measurement": "time to scale disappearance on the complementary elbow", "setting": "[1]; once daily, complementary elbow", "result": "three"}, {"measurement": "scales and skin condition of the treated (left) elbow", "setting": "[2]; cream 0.04% w/w sumatriptan (40 mg/100 ml), twice daily, four days after start of use, person", "result": "Disappearance of scales and skin return to normal is noted; also recorded: normalized the skin"}, {"measurement": "duration of remission of psoriasis on the treated elbow", "setting": "[2]; cream 0.04% w/w sumatriptan, left elbow", "result": "about one"}, {"measurement": "additional time to completed skin normalization", "setting": "[2]; cream 0.04% w/w sumatriptan, left elbow, counted after the first four days", "result": "4 to 5", "unit": "days"}]}]}
